The values below come from US20250057802A1, “BROAD-SPECTRUM ANTIVIRAL DRUGS” (FRAUNHOFER-GESELLSCHAFT ZUR FÖRDERUNG DER ANGEWANDTEN …, priority 2021, published 2025).

The subject of one data set is RSV. The data set is described as follows: in vitro RSV inhibitory assay (virus pre-incubated with compound, HEp-2 cells, infected cells counted). Format: cell-based, Human orthopneumovirus (RSV). The settings on record: human respiratory syncytial virus, 10 min; RSV incubated with compound 10 min at 37° C., added to HEp-2 cells, 2 dpi.
A further data set relates to SARS-CoV-2. Nature of the data set: SARS-CoV-2 viral inhibition assay on Vero E6 cells. Format: cell-based. The settings on record: Severe acute respiratory syndrome coronavirus 2, Vero C1008, virus incubated with compound 10 min at 37° C., 27 hours post-infection.
The test system of the next data set is HEp-2 cells. Nature of the data set: in vitro cytotoxicity analysis (CellTiter-Glo Luminescent Cell Viability Assay). Type of data set: cell-based, human. Also noted: unit not given here. The following applies: without RSV-infection, 48 h post-treatment. How it is done: FIG. 1A, FIG. 2A, FIG. 3A, FIG. 4A, FIG. 5A, and FIG. 6A show dose-response curves for identified inhibitors against RSV. RSV was incubated with increasing concentrations of compounds for 10 min at 37° C. before the compound-virus mixtures were added to human epithelial cells (HEp-2). 2 dpi, infection rates were measured by counting infected cells. Vehicle-treated cells were set as the reference at 100% and used to normalize the data. Shown values represent mean±SD (n=3). The IC50 was determined by fitting the data to a dose-response curve using nonlinear regression analysis (GraphPad Prism, version 6.02). FIG. 1B, FIG. 2B, FIG. 3B, FIG. 4B, FIG. 5B, and FIG. 6B show dose-response curves for identified inhibitors (the same as identified at the top of the respective figures) in in vitro cytotoxicity analysis. HEp-2 cells were treated with increasing concentration of compounds without RSV-infection to assess potential cytotoxicity of the compounds. 48 h post-treatment cells were analyzed using CellTiter-Glo® Luminescent Cell Viability Assay (Promega) to determine cell viability rates. Vehicle-treated cells were set as the reference at 100% of viability and used to normalize the data. Shown values represent mean+SD (n=3).

A further data set is described as follows: stability in solution. Format: physicochemical. The settings on record: 500 μM in DMSO/PBS (5:95 v/v); room temperature or 37° C.; versus 4,5-DCQA (reference).

Some results are limits rather than exact numbers.

`O=C(/C=C/c1ccc(O)c(O)c1)O[C@@H]1[C@H](O)C[C@@](O)(C(=O)O)C[C@H]1OC(=O)/C=C/c1ccc(O)c(O)c1` [4,5-DCQA, reference compound]: the half-maximal inhibitory concentration (IC50) was determined as 1090 nM with RSV and 218 nM in the data set with SARS-CoV-2. Moreover, in the data set on HEp-2 cells, the “Cytotoxic concentration on HEp-2 cells” value is above 80000.

Regarding `O=C(OCCCOC(=O)c1cc(O)c(O)c(O)c1)c1cc(O)c(O)c(O)c1` [Compound 1, 3-(3,4,5-trihydroxybenzoyl)oxypropyl 3,4,5-trihydroxybenzoate], the IC50 in the data set with RSV was determined as 129 nM. Further, the “Cytotoxic concentration on HEp-2 cells” value with HEp-2 cells was 72737.

In the case of `O=C(OCCCCCOC(=O)c1cc(O)c(O)c(O)c1)c1cc(O)c(O)c(O)c1` [Compound 2, 5-(3,4,5-trihydroxybenzoyl)oxypentyl 3,4,5-trihydroxybenzoate], in the data set with RSV, the concentration for half-maximal inhibition (IC50) is 4960 nM. Moreover, the “Cytotoxic concentration on HEp-2 cells” value in the data set on HEp-2 cells is above 80000.

Regarding `O=C(OCCCCCCCCOC(=O)c1cc(O)c(O)c(O)c1)c1cc(O)c(O)c(O)c1` [Compound 3, 8-(3,4,5-trihydroxybenzoyl)oxyoctyl 3,4,5-trihydroxybenzoate], the IC50 in the data set with RSV is 145 nM. Further, the “Cytotoxic concentration on HEp-2 cells” value with HEp-2 cells is given as 9197.

As for `CC(C)(COC(=O)c1cc(O)c(O)c(O)c1)COC(=O)c1cc(O)c(O)c(O)c1` [Compound 4, [2,2-dimethyl-3-(3,4,5-trihydroxybenzoyl)oxy-propyl]3,4,5-trihydroxybenzoate], in the data set with RSV, the IC50 is 162 nM. Moreover, the “Cytotoxic concentration on HEp-2 cells” value in the data set on HEp-2 cells is recorded as 63163.

For the compound `O=C(OCCOCCOC(=O)c1cc(O)c(O)c(O)c1)c1cc(O)c(O)c(O)c1` [Compound 5, 2-[2-(3,4,5-trihydroxybenzoyl)oxyethoxy]ethyl 3,4,5-trihydroxybenzoate], in the data set on RSV, the IC50 was found to be 9330 nM. Besides, in the data set on HEp-2 cells, the “Cytotoxic concentration on HEp-2 cells” value is 638066.

Take `O=C(O[C@@H]1CCC[C@H](OC(=O)c2cc(O)c(O)c(O)c2)C1)c1cc(O)c(O)c(O)c1` [Compound 6, [(1R,3S)-3-(3,4,5-trihydroxybenzoyl)oxycyclohexyl]3,4,5-trihydroxybenzoate]: the IC50 in the data set on RSV was 165 nM. Also, the “Cytotoxic concentration on HEp-2 cells” value in the data set on HEp-2 cells came out at 61709.

For `O=C(OCC(O)COC(=O)c1cc(O)c(O)c(O)c1)c1cc(O)c(O)c(O)c1` [Compound 7, [2-hydroxy-3-(3,4,5-trihydroxybenzoyl)oxy-propyl]3,4,5-trihydroxybenzoate], the IC50 with RSV is 339 nM. Moreover, in the data set on HEp-2 cells, the “Cytotoxic concentration on HEp-2 cells” value is reported as above 80000.

Take `NC(COC(=O)c1cc(O)c(O)c(O)c1)COC(=O)c1cc(O)c(O)c(O)c1` [Compound 8, [2-amino-3-(3,4,5-trihydroxybenzoyl)oxy-propyl]3,4,5-trihydroxybenzoate]: the concentration for half-maximal inhibition (IC50) in the data set on RSV stood at 87.7 nM. Besides, the “Cytotoxic concentration on HEp-2 cells” value with HEp-2 cells is recorded as 66234.

As to `O=C(OCC(COC(=O)c1cc(O)c(O)c(O)c1)OC(=O)c1cc(O)c(O)c(O)c1)c1cc(O)c(O)c(O)c1` [Compound 9, 2,3-bis[(3,4,5-trihydroxybenzoyl)oxy]propyl 3,4,5-trihydroxybenzoate], in the data set with RSV, the IC50 turned out to be 55.5 nM. In addition, the “Cytotoxic concentration on HEp-2 cells” value in the data set with HEp-2 cells turned out to be 49099.5.

Regarding `O=C(OCC(COC(=O)c1cc(O)c(O)c(O)c1)COC(=O)c1cc(O)c(O)c(O)c1)c1cc(O)c(O)c(O)c1` [Compound 10, [3-(3,4,5-trihydroxybenzoyl)oxy-2-[(3,4,5-trihydroxybenzoyl)oxymethyl]propyl]3,4,5-trihydroxybenzoate], in the data set with RSV, the IC50 amounted to 47.2 nM. Moreover, the “Cytotoxic concentration on HEp-2 cells” value with HEp-2 cells is recorded as 75145.

Take `CC(COC(=O)c1cc(O)c(O)c(O)c1)(COC(=O)c1cc(O)c(O)c(O)c1)COC(=O)c1cc(O)c(O)c(O)c1` [Compound 11, [2-methyl-3-(3,4,5-trihydroxybenzoyl)oxy-2-[(3,4,5-trihydroxybenzoyl)oxymethyl]-propyl]3,4,5-trihydroxybenzoate]: the 50% inhibitory concentration (IC50) in the data set with RSV stood at 36.7 nM. Besides, the “Cytotoxic concentration on HEp-2 cells” value in the data set on HEp-2 cells is given as 47303.

With `CC(COC(=O)c1ccccc1)(COC(=O)c1cc(O)c(O)c(O)c1)COC(=O)c1cc(O)c(O)c(O)c1` [Compound 12, [2-(benzoyloxymethyl)-2-methyl-3-(3,4,5-trihydroxybenzoyl)oxy-propyl]3,4,5-trihydroxybenzoate], the IC50 in the data set on RSV was 105 nM. Further, the “Cytotoxic concentration on HEp-2 cells” value with HEp-2 cells came to 34098.5.

With `CC(COC(=O)c1ccccc1)(COC(=O)c1ccccc1)COC(=O)c1cc(O)c(O)c(O)c1` [Compound 13, [3-benzoyloxy-2-(benzoyloxymethyl)-2-methyl-propyl]3,4,5-trihydroxybenzoate], in the data set with RSV, the IC50 stood at 480 nM. The “Cytotoxic concentration on HEp-2 cells” value in the data set with HEp-2 cells amounted to 13042.

`O=C(NCCCNC(=O)c1cc(O)c(O)c(O)c1)c1cc(O)c(O)c(O)c1` [Compound 14, 3,4,5-trihydroxy-N-[3-[(3,4,5-trihydroxybenzoyl)amino]propyl]benzamide]: the half-inhibitory concentration (IC50) with RSV stood at 367 nM. For the same compound, the “Cytotoxic concentration on HEp-2 cells” value with HEp-2 cells is 15677.

Regarding `O=C(NCCCCCNC(=O)c1cc(O)c(O)c(O)c1)c1cc(O)c(O)c(O)c1` [Compound 15, 3,4,5-trihydroxy-N-[5-[(3,4,5-trihydroxybenzoyl)amino]pentyl]benzamide], the concentration for half-maximal inhibition (IC50) in the data set with RSV amounted to 408 nM. Moreover, in the data set with HEp-2 cells, the “Cytotoxic concentration on HEp-2 cells” value is on record as 45401.

As for `O=C(NCCCCCCCCCCNC(=O)c1cc(O)c(O)c(O)c1)c1cc(O)c(O)c(O)c1` [Compound 16, 3,4,5-trihydroxy-N-[10-[(3,4,5-trihydroxybenzoyl)amino]decyl]benzamide], the concentration for half-maximal inhibition (IC50) in the data set on RSV is 767 nM. Besides, the “Cytotoxic concentration on HEp-2 cells” value with HEp-2 cells is given as above 80000.

For `O=C(NCCN(CCNC(=O)c1cc(O)c(O)c(O)c1)C(=O)c1cc(O)c(O)c(O)c1)c1cc(O)c(O)c(O)c1` [Compound 17, 3,4,5-trihydroxy-N-[2-[(3,4,5-trihydroxybenzoyl)-[2-[(3,4,5-trihydroxybenzoyl)-amino]-ethyl]amino]ethyl]benzamide], the IC50 in the data set on RSV came out at 155 nM. In addition, the “Cytotoxic concentration on HEp-2 cells” value in the data set with HEp-2 cells was 36216.

As for `CC(CNC(=O)c1cc(O)c(O)c(O)c1)(CNC(=O)c1cc(O)c(O)c(O)c1)CNC(=O)c1cc(O)c(O)c(O)c1` [Compound 18, 3,4,5-trihydroxy-N-[2-methyl-3-[(3,4,5-trihydroxybenzoyl)amino]-2-[[(3,4,5-trihydroxy-benzoyl)amino]methyl]propyl]benzamide], the 50% inhibitory concentration (IC50) in the data set on RSV was found to be 59.5 nM. For the same compound, the “Cytotoxic concentration on HEp-2 cells” value with HEp-2 cells is recorded as above 80000.

With `CC(CNC(=O)c1ccc(O)cc1)(CNC(=O)c1ccc(O)cc1)CNC(=O)c1ccc(O)cc1` [Compound 19, 4-hydroxy-N-[3-[(4-hydroxybenzoyl)amino]-2-[[(4-hydroxybenzoyl)amino]methyl]-2-methyl-propyl]benzamide], in the data set on HEp-2 cells, the “Cytotoxic concentration on HEp-2 cells” value is recorded as above 80000.

`CC(CNC(=O)c1cccc(O)c1)(CNC(=O)c1cccc(O)c1)CNC(=O)c1cccc(O)c1` [Compound 20, 3-hydroxy-N-[3-[(3-hydroxybenzoyl)amino]-2-[[(3-hydroxybenzoyl)amino]methyl]-2-methyl-propyl]benzamide]: in the data set with HEp-2 cells, the “Cytotoxic concentration on HEp-2 cells” value is on record as 76260.

As to `CC(CNC(=O)c1ccc2c(c1)OCO2)(CNC(=O)c1ccc2c(c1)OCO2)CNC(=O)c1ccc2c(c1)OCO2` [Compound 21, N-[3-(1,3-benzodioxole-5-carbonylamino)-2-[(1,3-benzodioxole-5-carbonylamino)-methyl]-2-methyl-propyl]-1,3-benzodioxole-5-carboxamide], the “Cytotoxic concentration on HEp-2 cells” value with HEp-2 cells is above 80000.

Consider `CC(CNC(=O)c1ccc(O)cc1O)(CNC(=O)c1ccc(O)cc1O)CNC(=O)c1ccc(O)cc1O` [Compound 22, N-[3-[(2,4-dihydroxybenzoyl)amino]-2-[[(2,4-dihydroxybenzoyl)amino]methyl]-2-methyl-propyl]-2,4-dihydroxy-benzamide], for which the 50% inhibitory concentration (IC50) in the data set on SARS-CoV-2 was 75.1 nM. In addition, the “Cytotoxic concentration on HEp-2 cells” value in the data set on HEp-2 cells is 17473.

In the case of `CC(CNC(=O)c1ccc(O)c(O)c1)(CNC(=O)c1ccc(O)c(O)c1)CNC(=O)c1ccc(O)c(O)c1` [Compound 23, N-[3-[(3,4-dihydroxybenzoyl)amino]-2-[[(3,4-dihydroxybenzoyl)amino]methyl]-2-methyl-propyl]-3,4-dihydroxy-benzamide], the 50% inhibitory concentration (IC50) came to 35.7 nM with RSV and 26 nM with SARS-CoV-2. In “stability in solution”, the stability in solution result is on record as “improved stability”. Moreover, in the data set on HEp-2 cells, the “Cytotoxic concentration on HEp-2 cells” value is above 80000.

Regarding `CC(CNC(=O)c1cccc(O)c1O)(CNC(=O)c1cccc(O)c1O)CNC(=O)c1cccc(O)c1O` [Compound 24, N-[3-[(2,3-dihydroxybenzoyl)amino]-2-[[(2,3-dihydroxybenzoyl)amino]methyl]-2-methyl-propyl]-2,3-dihydroxy-benzamide], in the data set with HEp-2 cells, the “Cytotoxic concentration on HEp-2 cells” value came to 5822.5.
